# Data published in article PMC3724450 (Nature communications, 2013).
# Tested on: HCC4017
# Test: Cell viability assay, patient matched pair
# Details: patient matched cancer vs normal lines
compound,measurement,value
"COC(=O)CNC(=O)C(=O)OC [D1070, dimethyloxalylglycine]",selectivity for cancer vs. normal patient matched cells,only five-fold selectivity for cancer
